Drawing on ChEMBL document CHEMBL5257096, “Accelerating Drug Discovery: Synthesis of Complex Chemotypes via Multicomponent Reactions” (ACS Med Chem Lett, 2023), this text covers IC50 for one compound.

The experiment addresses Isocitrate dehydrogenase [NADP] cytoplasmic (Homo sapiens, UniProt O75874, R132H). Nature of the experiment: Inhibition of IDH1 R132H mutant (unknown origin).

Chain of Isocitrate dehydrogenase [NADP] cytoplasmic (O75874 2-414 R132H limits assumed): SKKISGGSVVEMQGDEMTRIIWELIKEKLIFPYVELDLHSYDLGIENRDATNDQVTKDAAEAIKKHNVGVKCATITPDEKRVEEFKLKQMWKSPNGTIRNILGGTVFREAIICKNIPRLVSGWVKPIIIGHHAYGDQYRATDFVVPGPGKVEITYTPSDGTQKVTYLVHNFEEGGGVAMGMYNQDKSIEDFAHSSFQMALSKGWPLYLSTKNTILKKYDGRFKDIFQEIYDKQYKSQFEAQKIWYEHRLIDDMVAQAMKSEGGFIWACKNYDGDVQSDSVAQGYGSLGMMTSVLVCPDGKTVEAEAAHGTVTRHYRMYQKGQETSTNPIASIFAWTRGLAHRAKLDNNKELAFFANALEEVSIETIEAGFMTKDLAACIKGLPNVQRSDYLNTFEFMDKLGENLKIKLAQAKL

Broadly, the IC50 is the concentration at which inhibition is half-maximal. Read a high IC50 as a need for much substance. On to `O=C(NC1CCCCC1)[C@@H](c1ccccc1)N(C(=O)Cc1cccs1)c1cccc(F)c1`, for which the IC50 is more than 11 µM.
